Test results taken from paper PMC9497102, “Thiosemicarbazone Derivatives Developed to Overcome COTI-2 Resistance” (Cancers, 2022).
Like-named read-outs stand apart in the source and are kept apart here.

Key:
[1] = Parallel artificial membrane permeability assay (PAMPA); format: in vitro ADME; settings: pH 7.4, 25 °C, read-out: Peff
Experimental: The thermodynamic solubility of COTI-NMeCy, COTI-Nme2, COTI-NH2, and COTI-2 was measured for the saturated solutions in water at pH 7.4 (20 mM HEPES buffer) at 25.0 ± 0.1 °C. The concentrations of the compounds were determined by UV-vis spectrophotometry using stock solutions of the compounds with known concentrations dissolved in pure DMSO, and 50% and 1% (v/v) DMSO/buffered aqueous solution for the calibration. The parallel artificial membrane permeability assay (PAMPA) was applied for the ligands with a Corning Gentest pre-coated PAMPA Plate System. Peff values were calculated according to the equation reported by Yu et al..

SW480 cells = assay: Mitotic nuclei by DAPI staining; format: cell-based, human; settings: 24 h
Experimental: In order to detect mitotic nuclei, fixed cells were stained with DAPI. SW480 and SW480/Coti cells were seeded at a density of 2 × 10^5 cells per well in 6-well plates and left to recover for 24 h. This was followed by drug treatment at the indicated concentrations for 24 h. Then, cells were collected and spun on slides by centrifugation with a Thermo Scientific Cytospin 4 (400 rpm, 5 min at 4 °C). The slides were dried, and the cells were fixed with a methanol/acetone (1:1) mixture at −20 °C and stained with a solution containing DAPI (1 µg/mL). A final washing step with phosphate-buffered saline (PBS) was performed, followed by covering the slides with vectashield (H-100, Vector Laboratories, Inc., Newark, CA, USA) and coverslips. Mitotic nuclei were counted with Image J in three different areas per slide from three independent experiments.

[2] = system: SW480 and SW480/Coti cells; assay: HPLC-MS cell uptake measurements; format: cell-based, human; settings: 10 µM, 3 h; for uptake lower in resistant SW480/Coti cells compared with parental SW480 cells: LC-MS (method not validated)
Experimental: Cells (1 × 10^6) were seeded in 25 cm^2 culture flasks and left to recover for 24 h at 37 °C and 5% CO2. The compounds were dissolved in DMSO (10 mM) and further diluted in the growth medium. The cells were treated in triplicate by replacing the growth medium with 5 mL of drug-containing medium (10 µM). After 3 h of incubation the cells were washed once with ice-cold PBS, and then collected by scraping into ice-cold PBS. The cell suspension was centrifuged for 5 min at 300× g and the supernatant was removed. Then, the cell pellets were lysed with three freeze/thaw cycles in liquid nitrogen/37 °C waterbath and re-suspended in 100 µL of water and 300 µL of cold acetonitrile (1:3 mixture). After 10 min of incubation on ice, the samples were centrifuged (15,080× g, 4 °C, and 10 min) and the supernatants were stored at −80 °C for HPLC-MS analysis. For the calibration curve, known concentrations of drugs were spiked into untreated cell extracts before adding acetonitrile. To normalize to the cell number, additional flasks were prepared (treated and untreated) and cells were collected by trypsinization and counted with counting chambers.
LC-MS analyses of the cell and media extracts were performed on a Vanquish Horizon UHPLC system (Thermo Fisher Scientific, Waltham, MA, USA) coupled to the ESI source of a timsTOF fleX mass spectrometer (Bruker Daltonics, Billerica, MA, USA). […] High-resolution ESI-MS spectra were recorded using the positive ion mode in the range of m/z 150–510 at a spectra rate of 2 Hz. […] For quantification, extracted ion chromatograms of m/z 249.1168 ± 0.0020 for COTI-NMe2 and of m/z 367.1699 ± 0.0020 for COTI-2 were calculated and the peak areas were determined using Bruker Compass Data Analysis 5.3.
In general, it must be mentioned that the LC-MS method for quantification of COTI-2 and COTI-NMe2 was not validated and that the deviation of the peak areas both within a batch and between batches was higher than expected. […]

[3] = Spectrophotometric redox reaction of copper(II) complexes with GSH or AA; format: physicochemical; settings: 300 equiv. GSH, pH 7.4, after formation of mixed-ligand GSH adduct
Experimental: A Hewlett Packard 8452A diode array spectrophotometer and a special, tightly closed tandem cuvette (Hellma Tandem Cell, 238-QS) were used to monitor the redox reactions of the Cu(II) and Fe(III) complexes with GSH and AA. The spectra were recorded at a physiological pH (pH = 7.4, 50 mM HEPES, I = 0.1 M KCl) when the metal complexes:GSH or AA ratio was 1:300 (ccomplex = 30 μM, cGSH or AA = 9 mM). The stock solutions of the complexes and the GSH and AA solutions were freshly prepared before every measurement. In the first half of the cuvette, the ligand was mixed with the complex, and the other contained the reducing agent. Both isolated parts of the cuvette were deoxygenated with argon for 10 min. The first spectrum was recorded before mixing, and then after mixing, the reduction was usually followed until no further absorbance change was observed.

SW480/Tria cells = system: SW480/Tria cells; set-up: method as in PMID 33190481; settings: 72 h, MTT; cited from earlier work
[4] = set-up: method as in PMID 33190481; settings: after formation of mixed-ligand GSH adduct; cited from earlier work
[5] = Cyclic voltammetry of iron(III)–ligand (1:2) systems; format: physicochemical; settings: cL = 1 mM, pH 7.40, 25 °C, 90% (v/v) DMSO/H2O, 0.01 V/s scan rate
Experimental: Cyclic voltammograms for the Fe(III) and Cu(II) complexes were recorded in 90% (v/v) DMSO/water solution containing 1 mM ligand and 0.5 mM FeCl3 or 1 mM CuCl2 using a conventional three-electrode system under nitrogen atmosphere and a PC-Controlled Electrochemical Measurement System (EF 451). The ionic strength was 0.10 M, adjusted by TBAN. Samples were purged for 15 min with Ar before recording the cyclic voltammograms. Platinum electrodes were used as the working and auxiliary electrodes, and Ag/AgCl (3 M KCl) was applied as the reference electrode. The electrochemical potentials were converted into the normal hydrogen electrode (NHE) scale by adding 0.222 V. The instrument was calibrated with an aqueous solution of K3[Fe(CN)6] (E1/2 = +0.386 V vs. NHE). Redox potentials were obtained at different scan rates (5–25 mV/s) in the range of −0.8 to +0.1 V. The dependence of the peak current values of the square root of the scan rates is shown in Figure S5 for the iron and copper complexes of COTI-NMeCy.

SW480/Coti cells = system: SW480/Coti cells; set-up: method as in PMID 33190481; settings: 72 h, MTT; cited from earlier work

CN(C)C(=S)NN=C1CCCc2cccnc21 (mixture of isomers) [COTI-NMe2, 2-(6,7-Dihydroquinolin-8(5H)-ylidene)-N^4,N^4-dimethylhydrazine-1-carbothioamide]
Papp [1]: 16 ± 0.1 ×10⁻⁶ cm/s | effect on mitotic cell fraction (SW480 cells): (complete) loss of the mitotic cell fraction | uptake lower in resistant SW480/Coti cells compared with parental SW480 cells [2]: no difference | lower intracellular drug levels compared with COTI-2 ([2]; both SW480 and SW480/Coti): 10–20 fold | redox reaction of the copper(II) complex with GSH [3]: no measurable spectral changes were seen

S=C(N/N=C1\CCCc2cccnc21)N1CCN(c2ccccn2)CC1 [COTI-2, 4-(pyridine-2-yl)-N-([(8E)-5,6,7,8-tetrahydroquinolin-8-ylidene]amino)piperazine-1-carbothioamide]
IC50 (SW480/Tria cells): 0.41 ± 0.16 µM | effect on mitotic cell fraction (SW480 cells): (complete) loss of the mitotic cell fraction | redox reaction of the copper(II) complex with GSH [4]: spectra were almost unchanged within 6 h | uptake lower in resistant SW480/Coti cells compared with parental SW480 cells [2]: ~ 40% | E’ vs. NHE, iron(III)–ligand (1:2) systems [5]: +0.11 V | IC50 (SW480/Coti cells): 9.51 ± 3.11 µM

CN(C(=S)N/N=C1\CCCc2cccnc21)C1CCCCC1 [COTI-NMeCy, N-Cyclohexyl-2-(6,7-dihydroquinolin-8(5H)-ylidene)-N^4-methylhydrazine-1-carbothioamide]
redox reaction of the copper(II) complex with GSH [3]: no measurable spectral changes were seen
